Results from PubChem BioAssay (NCI).
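All cell lines were grown in 96-well plates and treated with compound for 48 hours. TGI: concentration producing complete growth inhibition.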

What was measured:
Experiment in all cases: NCI tumour cell line growth inhibition, 48 h
786-0 renal = system: 786-0 renal
A498 renal = system: A498 renal
A549 NSCLC = system: A549 NSCLC
ACHN renal = system: ACHN renal
CAKI-1 renal = system: CAKI-1 renal
CCRF-CEM leukemia = system: CCRF-CEM leukemia
COLO 205 colon = system: COLO 205 colon
DLD-1 colon = system: DLD-1 colon
DMS 114 small cell lung = system: DMS 114 small cell lung
DMS 273 small cell lung = system: DMS 273 small cell lung
EKVX NSCLC = system: EKVX NSCLC
HCC-2998 colon = system: HCC-2998 colon
HCT-116 colon = system: HCT-116 colon
HCT-15 colon = system: HCT-15 colon
HL-60(TB) leukemia = system: HL-60(TB) leukemia
HOP-18 NSCLC = system: HOP-18 NSCLC
HOP-62 NSCLC = system: HOP-62 NSCLC
HOP-92 NSCLC = system: HOP-92 NSCLC
HT29 colon = system: HT29 colon
IGROV1 ovarian = system: IGROV1 ovarian
K-562 leukemia = system: K-562 leukemia
KM12 colon = system: KM12 colon
KM20L2 colon = system: KM20L2 colon
LOX IMVI melanoma = system: LOX IMVI melanoma
LXFL 529 NSCLC = system: LXFL 529 NSCLC
M14 melanoma = system: M14 melanoma
M19-MEL melanoma = system: M19-MEL melanoma
MALME-3M melanoma = system: MALME-3M melanoma
MOLT-4 leukemia = system: MOLT-4 leukemia
NCI-H226 lung = system: NCI-H226 lung
NCI-H23 lung = system: NCI-H23 lung
NCI-H460 lung = system: NCI-H460 lung
NCI-H522 lung = system: NCI-H522 lung
OVCAR-3 ovarian = system: OVCAR-3 ovarian
OVCAR-4 ovarian = system: OVCAR-4 ovarian
OVCAR-5 ovarian = system: OVCAR-5 ovarian
OVCAR-8 ovarian = system: OVCAR-8 ovarian
RPMI-8226 leukemia = system: RPMI-8226 leukemia
RXF 393 renal = system: RXF 393 renal
RXF-631 renal = system: RXF-631 renal
SF-268 CNS = system: SF-268 CNS
SF-295 CNS = system: SF-295 CNS
SF-539 CNS = system: SF-539 CNS
SK-MEL-2 melanoma = system: SK-MEL-2 melanoma
SK-MEL-28 melanoma = system: SK-MEL-28 melanoma
SK-MEL-5 melanoma = system: SK-MEL-5 melanoma
SK-OV-3 ovarian = system: SK-OV-3 ovarian
SN12C renal = system: SN12C renal
SNB-19 CNS = system: SNB-19 CNS
SNB-75 CNS = system: SNB-75 CNS
SNB-78 CNS = system: SNB-78 CNS
SR leukemia = system: SR leukemia
TK-10 renal = system: TK-10 renal
U251 CNS = system: U251 CNS
UACC-257 melanoma = system: UACC-257 melanoma
UACC-62 melanoma = system: UACC-62 melanoma
UO-31 renal = system: UO-31 renal
XF 498 CNS = system: XF 498 CNS
MCF7 breast = system: MCF7 breast
P388 leukemia = system: P388 leukemia
SN12K1 renal = system: SN12K1 renal
SW-620 colon = system: SW-620 colon
BT-549 breast = system: BT-549 breast
DU-145 prostate = system: DU-145 prostate
HS 578T breast = system: HS 578T breast
MDA-MB-231 breast = system: MDA-MB-231 breast
MDA-MB-435 = system: MDA-MB-435
MDA-N = system: MDA-N
NCI/ADR-RES ovarian = system: NCI/ADR-RES ovarian
PC-3 prostate = system: PC-3 prostate
T-47D breast = system: T-47D breast

**Q.** Which results are given for `CCOC(=O)C1([Se]c2ccccc2)CCCC1=O` (configuration not stated)?
**A.** TGI (786-0 renal): 28.4 µM; TGI (A498 renal): > 100 µM; TGI (A549 NSCLC): > 100 µM; TGI (ACHN renal): 43.2 µM; TGI (CAKI-1 renal): > 100 µM; TGI (CCRF-CEM leukemia): 56.8 µM; TGI (COLO 205 colon): 30.8 µM; TGI (DLD-1 colon): 32.9 µM; TGI (DMS 114 small cell lung): 15.3 µM; TGI (DMS 273 small cell lung): 28.5 µM; TGI (EKVX NSCLC): 86.8 µM; TGI (HCC-2998 colon): > 100 µM; TGI (HCT-116 colon): 30.9 µM; TGI (HCT-15 colon): 25.9 µM; TGI (HL-60(TB) leukemia): 23.5 µM; TGI (HOP-18 NSCLC): 59.7 µM; TGI (HOP-62 NSCLC): > 100 µM; TGI (HOP-92 NSCLC): 54.5 µM; TGI (HT29 colon): > 100 µM; TGI (IGROV1 ovarian): 78.4 µM; TGI (K-562 leukemia): > 100 µM; TGI (KM12 colon): > 100 µM; TGI (KM20L2 colon): > 100 µM; TGI (LOX IMVI melanoma): 26.7 µM; TGI (LXFL 529 NSCLC): 34.2 µM; TGI (M14 melanoma): 47.2 µM; TGI (M19-MEL melanoma): 51.1 µM; TGI (MALME-3M melanoma): > 100 µM; TGI (MOLT-4 leukemia): 57.1 µM; TGI (NCI-H226 lung): 74.8 µM; TGI (NCI-H23 lung): 33.4 µM; TGI (NCI-H460 lung): > 100 µM; TGI (NCI-H522 lung): 15.5 µM; TGI (OVCAR-3 ovarian): 98 µM; TGI (OVCAR-4 ovarian): 36.8 µM; TGI (OVCAR-5 ovarian): > 100 µM; TGI (OVCAR-8 ovarian): 30.5 µM; TGI (RPMI-8226 leukemia): 55.4 µM; TGI (RXF 393 renal): 21.3 µM; TGI (RXF-631 renal): > 100 µM; TGI (SF-268 CNS): 27.4 µM; TGI (SF-295 CNS): > 100 µM; TGI (SF-539 CNS): 43.6 µM; TGI (SK-MEL-2 melanoma): > 100 µM; TGI (SK-MEL-28 melanoma): 41.9 µM; TGI (SK-MEL-5 melanoma): 58 µM; TGI (SK-OV-3 ovarian): > 100 µM; TGI (SN12C renal): 30.5 µM; TGI (SNB-19 CNS): > 100 µM; TGI (SNB-75 CNS): 69.1 µM; TGI (SNB-78 CNS): 54.9 µM; TGI (SR leukemia): 47.5 µM; TGI (TK-10 renal): > 100 µM; TGI (U251 CNS): 23.3 µM; TGI (UACC-257 melanoma): > 100 µM; TGI (UACC-62 melanoma): 35.2 µM; TGI (UO-31 renal): 51.6 µM; TGI (XF 498 CNS): 36.9 µM

**Q.** What does the source list for `COc1cc(C2c3cc4c(cc3[C@@H](Oc3ccc(F)cc3)C3COC(=O)[C@H]23)OCO4)cc(OC)c1O` (some centres not stated)?
**A.** TGI (A549 NSCLC): > 100 µM; TGI (CAKI-1 renal): 14.5 µM; TGI (CCRF-CEM leukemia): > 23.2 µM; TGI (COLO 205 colon): 4.86 µM; TGI (DLD-1 colon): > 100 µM; TGI (DMS 273 small cell lung): 47.2 µM; TGI (EKVX NSCLC): > 100 µM; TGI (HCC-2998 colon): > 100 µM; TGI (HCT-116 colon): > 100 µM; TGI (HCT-15 colon): > 100 µM; TGI (HL-60(TB) leukemia): 1.06 µM; TGI (HOP-18 NSCLC): > 100 µM; TGI (HOP-62 NSCLC): 0.95 µM; TGI (HOP-92 NSCLC): > 100 µM; TGI (HT29 colon): 20 µM; TGI (IGROV1 ovarian): > 100 µM; TGI (K-562 leukemia): 30.4 µM; TGI (KM12 colon): 27.9 µM; TGI (KM20L2 colon): > 100 µM; TGI (LOX IMVI melanoma): > 100 µM; TGI (M19-MEL melanoma): 40.4 µM; TGI (MALME-3M melanoma): 31.8 µM; TGI (MCF7 breast): > 58 µM; TGI (MOLT-4 leukemia): 4.66 µM; TGI (NCI-H23 lung): > 100 µM; TGI (NCI-H460 lung): 25.4 µM; TGI (NCI-H522 lung): > 100 µM; TGI (OVCAR-3 ovarian): 72.3 µM; TGI (OVCAR-4 ovarian): > 100 µM; TGI (OVCAR-5 ovarian): > 100 µM; TGI (OVCAR-8 ovarian): > 100 µM; TGI (P388 leukemia): > 21.2 µM; TGI (RPMI-8226 leukemia): 6.64 µM; TGI (SF-268 CNS): > 100 µM; TGI (SF-295 CNS): > 60 µM; TGI (SK-MEL-2 melanoma): > 100 µM; TGI (SK-MEL-28 melanoma): > 100 µM; TGI (SK-MEL-5 melanoma): 10.9 µM; TGI (SN12C renal): > 100 µM; TGI (SN12K1 renal): > 100 µM; TGI (SW-620 colon): > 100 µM; TGI (U251 CNS): > 100 µM; TGI (UACC-257 melanoma): 22.8 µM; TGI (UACC-62 melanoma): > 100 µM; TGI (UO-31 renal): > 100 µM

**Q.** What does the source list for `CC(=O)OC1CC[C@@]2(C)C(CC[C@]3(C)C2CC=C2[C@@H]4C(C)[C@H](C)CCC4(C)CCC23C)[C@@]1(C)C(=O)O` (some centres not stated)?
**A.** TGI (786-0 renal): 52.9 µM; TGI (A498 renal): 37.2 µM; TGI (A549 NSCLC): 45.6 µM; TGI (ACHN renal): 36.8 µM; TGI (BT-549 breast): 49.8 µM; TGI (CAKI-1 renal): 35.1 µM; TGI (CCRF-CEM leukemia): 66.3 µM; TGI (COLO 205 colon): 45 µM; TGI (DLD-1 colon): 46.4 µM; TGI (DMS 114 small cell lung): 39.6 µM; TGI (DMS 273 small cell lung): 46.8 µM; TGI (DU-145 prostate): 33.2 µM; TGI (EKVX NSCLC): 43.3 µM; TGI (HCC-2998 colon): 38.7 µM; TGI (HCT-116 colon): 30.8 µM; TGI (HCT-15 colon): 43.2 µM; TGI (HL-60(TB) leukemia): 63.5 µM; TGI (HOP-18 NSCLC): 28.8 µM; TGI (HOP-62 NSCLC): 43.1 µM; TGI (HOP-92 NSCLC): 49.9 µM; TGI (HS 578T breast): 64.9 µM; TGI (HT29 colon): 47.4 µM; TGI (IGROV1 ovarian): 46.9 µM; TGI (K-562 leukemia): 86.9 µM; TGI (KM12 colon): 53.9 µM; TGI (KM20L2 colon): 29.4 µM; TGI (LOX IMVI melanoma): 51.7 µM; TGI (LXFL 529 NSCLC): 39.4 µM; TGI (M14 melanoma): 52.4 µM; TGI (M19-MEL melanoma): 51 µM; TGI (MALME-3M melanoma): 49 µM; TGI (MCF7 breast): 25.8 µM; TGI (MDA-MB-231 breast): 49.6 µM; TGI (MDA-MB-435): 40.6 µM; TGI (MDA-N): 42.3 µM; TGI (MOLT-4 leukemia): 69.6 µM; TGI (NCI-H226 lung): 53.4 µM; TGI (NCI-H23 lung): 51.6 µM; TGI (NCI-H460 lung): 71.6 µM; TGI (NCI-H522 lung): 45.4 µM; TGI (NCI/ADR-RES ovarian): 45 µM; TGI (OVCAR-3 ovarian): 40.4 µM; TGI (OVCAR-4 ovarian): 66.7 µM; TGI (OVCAR-5 ovarian): 33.3 µM; TGI (OVCAR-8 ovarian): 70 µM; TGI (PC-3 prostate): 31.8 µM; TGI (RPMI-8226 leukemia): 64.8 µM; TGI (RXF 393 renal): 49.4 µM; TGI (RXF-631 renal): 68.6 µM; TGI (SF-268 CNS): 60.5 µM; TGI (SF-295 CNS): 35.5 µM; TGI (SF-539 CNS): 51.8 µM; TGI (SK-MEL-2 melanoma): 50.2 µM; TGI (SK-MEL-28 melanoma): 52 µM; TGI (SK-MEL-5 melanoma): 35.5 µM; TGI (SK-OV-3 ovarian): 40.4 µM; TGI (SN12C renal): 53.2 µM; TGI (SNB-19 CNS): 53.1 µM; TGI (SNB-75 CNS): 35.8 µM; TGI (SNB-78 CNS): 65.6 µM; TGI (SR leukemia): 70.6 µM; TGI (SW-620 colon): 55.5 µM; TGI (T-47D breast): 43.3 µM; TGI (TK-10 renal): 30.7 µM; TGI (U251 CNS): 58.2 µM; TGI (UACC-257 melanoma): 40.9 µM; TGI (UACC-62 melanoma): 35.3 µM; TGI (UO-31 renal): 39.9 µM; TGI (XF 498 CNS): 36.1 µM
